Earlier results on one substance are cited in paper PMC7465353, “Antioxidant Effects of PS5, a Peptidomimetic of Suppressor of Cytokine Signaling 1, in Experimental Atherosclerosis” (Antioxidants, 2020).

This data set relates to VSMCs.

Regarding “KIR peptide: peptide encompassing residues 52–67, i.e., kinase inhibitory region (KIR) of SOCS1 (DTHFRTFRSHADYRRI; UniProt O15524 52-67, looked up, fragment)”, the “VSMC migration, wound healing” value was “significantly diminished the migration and proliferation”.
